Test [1] addresses T1, Phosphate regulon sensor protein phoR (Staphylococcus aureus subsp. aureus CN1, UniProt T1Y9P4).
T1 sequence (T1Y9P4 whole entry): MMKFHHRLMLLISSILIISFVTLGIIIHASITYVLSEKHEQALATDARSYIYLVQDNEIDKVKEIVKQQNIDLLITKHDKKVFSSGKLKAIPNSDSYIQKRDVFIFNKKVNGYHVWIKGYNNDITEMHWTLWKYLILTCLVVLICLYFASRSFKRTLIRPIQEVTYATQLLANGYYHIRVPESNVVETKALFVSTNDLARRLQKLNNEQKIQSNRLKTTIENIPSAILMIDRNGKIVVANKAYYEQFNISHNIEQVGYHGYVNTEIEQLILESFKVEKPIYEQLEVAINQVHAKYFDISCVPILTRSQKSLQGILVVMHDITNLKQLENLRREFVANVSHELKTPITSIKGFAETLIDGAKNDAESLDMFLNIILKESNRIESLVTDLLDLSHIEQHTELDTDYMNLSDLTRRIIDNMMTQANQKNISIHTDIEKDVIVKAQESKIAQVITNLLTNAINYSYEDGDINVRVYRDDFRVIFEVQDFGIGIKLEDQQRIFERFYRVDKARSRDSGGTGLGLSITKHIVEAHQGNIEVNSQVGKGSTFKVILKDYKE
Kind of test: Inhibition of Staphylococcus aureus DHp-catalytic domain PhoR autophosphorylation expressed in Escherichia coli RIL in presence of gamma-32P-ATP by SDS-PAGE analysis.

Test [2] relates to Escherichia coli. Kind of test: Antimicrobial activity against Escherichia coli CFT073 after 24 hrs by double dilution method. In kind it is functional. Particulars: CFT073, 24 h.
Test [3] has as its target T2, Phosphate regulon sensor protein PhoR (Escherichia coli (strain K12), UniProt P08400).
T2 sequence (P08400 whole entry): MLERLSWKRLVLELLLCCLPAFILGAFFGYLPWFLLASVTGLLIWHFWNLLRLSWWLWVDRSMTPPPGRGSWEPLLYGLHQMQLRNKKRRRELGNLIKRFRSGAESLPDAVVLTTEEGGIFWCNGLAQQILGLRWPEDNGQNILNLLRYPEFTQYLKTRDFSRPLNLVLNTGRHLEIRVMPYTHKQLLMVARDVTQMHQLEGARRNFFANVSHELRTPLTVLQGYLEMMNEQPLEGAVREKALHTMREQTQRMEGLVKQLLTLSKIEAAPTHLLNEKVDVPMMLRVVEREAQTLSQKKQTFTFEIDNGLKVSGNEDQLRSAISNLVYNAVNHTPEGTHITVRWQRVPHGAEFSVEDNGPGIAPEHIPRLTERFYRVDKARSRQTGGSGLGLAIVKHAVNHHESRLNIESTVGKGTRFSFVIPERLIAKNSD
Description: Inhibition of Escherichia coli DHp-catalytic domain PhoR autophosphorylation expressed in Escherichia coli RIL in presence of gamma-32P-ATP by SDS-PAGE analysis.

Another test deals with Staphylococcus aureus. Description: Antimicrobial activity against Staphylococcus aureus 20231 after 24 hrs by double dilution method. Particulars: Staphylococcus aureus, 20231, 24 h. Type of test: functional.
The test system of test [4] is Staphylococcus epidermidis. Kind of test: Antimicrobial activity against Staphylococcus epidermidis ATCC 35984 after 10 hrs. In kind it is functional. Conditions: ATCC 35984, 10 h.
Test [5] has as its target T3, Sensor protein kinase WalK (Staphylococcus epidermidis (strain ATCC 35984 / RP62A), UniProt Q5HK19).
T3 sequence (Q5HK19 whole entry): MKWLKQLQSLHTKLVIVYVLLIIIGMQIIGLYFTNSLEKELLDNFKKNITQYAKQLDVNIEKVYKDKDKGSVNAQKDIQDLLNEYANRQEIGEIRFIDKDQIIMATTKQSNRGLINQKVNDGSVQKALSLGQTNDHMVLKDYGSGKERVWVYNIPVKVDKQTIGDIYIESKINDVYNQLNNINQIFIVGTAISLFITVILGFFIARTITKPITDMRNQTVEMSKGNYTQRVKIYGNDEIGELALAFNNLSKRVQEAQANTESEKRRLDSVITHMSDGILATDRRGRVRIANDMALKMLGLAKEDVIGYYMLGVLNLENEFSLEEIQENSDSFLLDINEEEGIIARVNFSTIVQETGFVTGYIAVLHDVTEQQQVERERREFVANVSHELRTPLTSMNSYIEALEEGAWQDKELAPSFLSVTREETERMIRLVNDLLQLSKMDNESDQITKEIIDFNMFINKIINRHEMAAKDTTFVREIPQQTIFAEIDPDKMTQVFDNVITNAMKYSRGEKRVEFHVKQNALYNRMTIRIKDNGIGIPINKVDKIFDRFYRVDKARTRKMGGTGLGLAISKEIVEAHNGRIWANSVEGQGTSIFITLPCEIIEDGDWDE
Description: Inhibition of recombinant Staphylococcus epidermidis ATCC 35984 N-terminal GB1-tagged YycG expressed in Escherichia coli BL21 (DE3) preincubated for 30 mins followed by ATP addition after 30 mins by kinase-glo assay. (In general: In Kinase-Glo more light means more ATP remaining.)

The test system of the next test is Bacillus subtilis. Description: Antimicrobial activity against Bacillus subtilis 3610 after 20 hrs by Mueller-Hinton Broth microdilution method. In kind it is functional. Particulars: subsp. subtilis str. NCIB 3610, 20 h. In general terms: In broth dilution the organism is exposed to a series of concentrations in liquid medium.
Test [6] in a line: Inhibition of Thermotoga maritima HK853 preincubated for 30 mins followed by B-ATPgammaS addition after 1 hr in dark by in-gel fluorescence analysis.
The next test concerns the target T4, Chemotaxis protein CheA (Escherichia coli (strain K12), UniProt P07363).
T4 sequence (P07363 whole entry): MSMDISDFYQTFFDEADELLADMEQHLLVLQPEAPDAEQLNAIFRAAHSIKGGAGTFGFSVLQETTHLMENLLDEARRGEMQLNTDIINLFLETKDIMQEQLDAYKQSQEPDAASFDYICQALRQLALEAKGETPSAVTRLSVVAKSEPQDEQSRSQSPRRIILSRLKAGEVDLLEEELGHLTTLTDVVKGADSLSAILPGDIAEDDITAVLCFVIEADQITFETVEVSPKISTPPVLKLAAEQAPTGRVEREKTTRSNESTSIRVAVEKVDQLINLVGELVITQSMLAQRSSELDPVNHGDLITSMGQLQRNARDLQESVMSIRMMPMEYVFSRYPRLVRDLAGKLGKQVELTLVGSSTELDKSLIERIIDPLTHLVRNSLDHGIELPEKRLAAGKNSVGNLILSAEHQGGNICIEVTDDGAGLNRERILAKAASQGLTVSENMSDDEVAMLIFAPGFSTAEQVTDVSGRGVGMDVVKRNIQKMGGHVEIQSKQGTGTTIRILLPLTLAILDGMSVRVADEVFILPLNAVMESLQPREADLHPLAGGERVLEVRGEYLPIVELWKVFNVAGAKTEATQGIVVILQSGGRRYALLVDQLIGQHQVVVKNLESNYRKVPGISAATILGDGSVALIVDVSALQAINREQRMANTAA
Description: Inhibition of Escherichia coli CheA preincubated for 30 mins followed by [gamma-33P]ATP addition after 30 mins by SDS-PAGE method.

The test system of test [7] is Escherichia coli. Description: Antimicrobial activity against Escherichia coli DC2 after 20 hrs by Mueller-Hinton Broth microdilution method. Type of test: functional. Particulars: DC2, 20 h.
In test [8] the target is T5, Sensor protein kinase WalK family protein (Streptococcus pneumoniae PCS8203, UniProt A0A0H2UQD0).
T5 sequence (A0A0H2UQD0 whole entry): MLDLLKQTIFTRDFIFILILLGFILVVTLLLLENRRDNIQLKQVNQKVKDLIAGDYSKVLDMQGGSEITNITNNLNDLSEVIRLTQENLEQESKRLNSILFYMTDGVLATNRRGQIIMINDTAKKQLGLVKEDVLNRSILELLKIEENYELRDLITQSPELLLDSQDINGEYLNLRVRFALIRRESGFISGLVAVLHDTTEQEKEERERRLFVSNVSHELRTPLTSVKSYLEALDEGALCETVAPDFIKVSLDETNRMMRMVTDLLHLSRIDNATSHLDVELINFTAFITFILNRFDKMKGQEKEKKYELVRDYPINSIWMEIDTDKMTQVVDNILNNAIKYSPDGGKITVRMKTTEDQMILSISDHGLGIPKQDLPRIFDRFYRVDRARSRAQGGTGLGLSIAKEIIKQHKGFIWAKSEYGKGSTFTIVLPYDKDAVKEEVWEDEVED
Kind of test: Inhibition of Streptococcus pneumoniae VicK preincubated for 30 mins followed by [gamma-33P]ATP addition after 30 mins by SDS-PAGE method.

Each structure is given as a SMILES string. In brackets after ≈: the same amount, converted by molar mass.

By IC50 is commonly meant the midpoint of a concentration-inhibition curve. One may read the MIC as the smallest concentration in the dilution series that meets the test's criterion for growth inhibition.

As for `CCC(c1ccc(O)cc1)C(CC)c1ccc(F)cc1` (stereo unspecified), the IC50 in test [1] was found to be 212 µM; in test [3], 16 µM. The results for the MIC against Escherichia coli [2] and in the test on Staphylococcus aureus were above 500 µg/mL and 8 µg/mL (≈ 29.4 µM), respectively.

Consider `O=C(O)c1cccc(-c2ccc(/C=c3\sc4n(c3=O)C(c3ccc(F)cc3)C=C(c3ccccc3)N=4)o2)c1` (stereo unspecified), for which inhibition of growth in test [4] (MIC) required 1.6 µg/mL (≈ 3.06 µM). Besides, the IC50 in test [5] came to 24 µM.

With `O=c1cc(-c2ccc(O)c(O)c2)oc2cc(O)cc(O)c12` [LUTEOLIN], the figures for the MIC with Bacillus subtilis and in the test on Escherichia coli [7] were above 128 µg/mL and 8 µg/mL (≈ 27.9 µM), respectively. Further, the IC50 in [6] was 15.1 µM; at Chemotaxis protein CheA, 111 µM; in [8] it was 216 µM.

For the origin of these results see ChEMBL document CHEMBL4184156, “Repurposing Hsp90 inhibitors as antibiotics targeting histidine kinases” (Bioorg Med Chem Lett, 2017).
